In one assay the test system is primary astrocytes. The assay is described as follows: A1 astrocyte conversion in primary astrocytes treated with PFF-activated microglia conditioned medium (MCM). Type of assay: cell-based, mouse. Particulars: astrocytes 24 h with MCM from inhibitor-treated PFF-activated microglia; in words. The procedure: Primary neuron, microglia and astrocyte cell cultures, and α-synuclein PFE's treatment: NOD2 or RIPK2 knockout mice was obtained from Jackson Laboratories (Bar Harbor, ME, USA). Primary cortical neurons were prepared from embryonic day 15.5 pups and cultured in Neurobasal medium (Gibco) supplemented with B-27, 0.5 mM L-glutamine, penicillin and streptomycin (Invitrogen, Grand Island, NY, USA) on tissue-culture plates coated with poly-L-lysine. The neurons were maintained by changing the medium every 3-4 days. Primary microglial and astrocyte cultures were performed as described previously (PMID: 26157004). Whole brains from mouse pups at postnatal day 1 (P1) were obtained. […] The total protein concentration was determined using Pierce BCA protein assay kit (Thermo Scientific), and 15 or 50 μg ml^-1 of total protein was added to mouse primary neurons for the neuronal cell death assay. […] RNA concentration was measured spectrophotometrically using NanoDrop 2000 ([…]). […] The expression levels of targeted genes were normalized to the expression of β-actin and calculated based on the comparative cycle threshold Ct method (2-ΔΔCt).

The test system of a further assay is primary cortical neurons. The assay is described as follows: Neuronal toxicity of astrocyte conditioned medium (AlamarBlue and LDH assays). Particulars: cortical neurons 24 h with ACM, in words. Format: cell-based, mouse. How it is done: Primary neuron, microglia and astrocyte cell cultures, and α-synuclein PFE's treatment: NOD2 or RIPK2 knockout mice was obtained from Jackson Laboratories (Bar Harbor, ME, USA). Primary cortical neurons were prepared from embryonic day 15.5 pups and cultured in Neurobasal medium (Gibco) supplemented with B-27, 0.5 mM L-glutamine, penicillin and streptomycin (Invitrogen, Grand Island, NY, USA) on tissue-culture plates coated with poly-L-lysine. The neurons were maintained by changing the medium every 3-4 days. Primary microglial and astrocyte cultures were performed as described previously (PMID: 26157004). Whole brains from mouse pups at postnatal day 1 (P1) were obtained. […] The total protein concentration was determined using Pierce BCA protein assay kit (Thermo Scientific), and 15 or 50 μg ml^-1 of total protein was added to mouse primary neurons for the neuronal cell death assay. […] Cell viability was determined by two methods: The AlamarBlue (Invitrogen) and LDH assay (Sigma). Cell death was assessed through AlamarBlue assay, according to the manufacturer's protocol. LDH activity in culture medium, representing relative cell viability and membrane integrity, was measured using the LDH assay kit spectrophotometrically, following the manufacturer's instructions. […]
Background: The colour change of resazurin is a common sign of viable cells or microbes.

Consider `CC(C)(C)S(=O)(=O)c1ccc2nccc(Nc3n[nH]c4ccc(F)cc34)c2c1` [GSK583, 6-(tert-butylsulfonyl)-N-(5-fluoro-1H-indazol-3-yl) quinolin-4-amine], for which, in the assay on primary astrocytes, the A1 astrocyte conversion entry is “significantly suppress”. Moreover, in the assay on primary cortical neurons, the “neuronal cell death induced by neurotoxic astrocytes” value is reported as “significantly prevented neuronal cell death”.
For the compound `COc1cc2ncnc(Nc3ccc(F)c(Cl)c3)c2cc1OCCCN1CCOCC1` [Gefitinib], the A1 astrocyte conversion entry with primary astrocytes is given as “significantly suppress”. For the same compound, the “neuronal cell death induced by neurotoxic astrocytes” value with primary cortical neurons was “significantly prevented neuronal cell death”.
